Legend:
[1] = tested on: Hepatitis C virus; assay: Antiviral activity against HCV; assay type: functional, organism-based, Hepacivirus hominis
[2] = target: T1, RNA-directed RNA polymerase (Hepacivirus hominis, UniProt O39930); assay: Binding affinity to HCV NS5B polymerase
[3] = target: T2, Hepatitis C virus serine protease, NS3/NS4A (Hepatitis C virus, UniProt A3EZI9+D2K2A8); assay: Inhibition of HCV NS3/4a protease; assay type: protein-complex assay, Hepacivirus hominis
[4] = target: T1, RNA-directed RNA polymerase; assay: Inhibition of HCV NS5B polymerase
[5] = tested on: Hepatitis C virus; assay: Antiviral activity against HCV genotype 1b; assay type: functional, organism-based, Hepacivirus hominis; settings: subtype 1b
[6] = tested on: Hepatitis C virus; assay: Antiviral activity against HCV genotype 3a; assay type: functional, organism-based, Hepacivirus hominis; settings: subtype 3a
[7] = target: T2, Hepatitis C virus serine protease, NS3/NS4A; assay: Inhibition of HCV NS3/4a protease using Ac-DE-Dap(QXL520)-EE-Abu-shi-[COO]AS-C(5-FAMsp)-NH2 as substrate after 15 mins; assay type: protein-complex assay, Hepacivirus hominis
[8] = tested on: Hepatitis C virus; assay: Antiviral activity against HCV genotype 1a; assay type: functional, organism-based, Hepacivirus hominis; settings: subtype 1a
[9] = target: T2, Hepatitis C virus serine protease, NS3/NS4A; assay: Inhibition of HCV NS3/4a protease in presence Zn2+; assay type: protein-complex assay, Hepacivirus hominis

T2 sequence (D2K2A8 whole entry): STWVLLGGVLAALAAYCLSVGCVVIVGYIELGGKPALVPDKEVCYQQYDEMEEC
T2 sequence (A3EZI9 whole entry): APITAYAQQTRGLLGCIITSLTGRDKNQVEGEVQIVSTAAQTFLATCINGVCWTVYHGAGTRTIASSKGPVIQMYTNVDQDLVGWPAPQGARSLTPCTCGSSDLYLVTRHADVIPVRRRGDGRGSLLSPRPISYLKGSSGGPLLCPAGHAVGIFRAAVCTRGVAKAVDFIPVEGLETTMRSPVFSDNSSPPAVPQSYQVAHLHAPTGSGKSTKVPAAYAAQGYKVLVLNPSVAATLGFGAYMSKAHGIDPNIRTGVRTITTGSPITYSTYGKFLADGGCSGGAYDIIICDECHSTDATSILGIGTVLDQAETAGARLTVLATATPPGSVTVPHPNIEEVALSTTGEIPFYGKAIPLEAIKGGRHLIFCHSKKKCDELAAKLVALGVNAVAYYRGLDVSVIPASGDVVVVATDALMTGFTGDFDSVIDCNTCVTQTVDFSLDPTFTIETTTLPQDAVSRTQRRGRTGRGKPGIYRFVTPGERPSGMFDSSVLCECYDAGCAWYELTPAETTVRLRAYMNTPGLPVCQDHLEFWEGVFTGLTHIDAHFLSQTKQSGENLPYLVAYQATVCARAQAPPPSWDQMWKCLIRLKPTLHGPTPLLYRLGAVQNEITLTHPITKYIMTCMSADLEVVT
T1 sequence (O39930 whole entry): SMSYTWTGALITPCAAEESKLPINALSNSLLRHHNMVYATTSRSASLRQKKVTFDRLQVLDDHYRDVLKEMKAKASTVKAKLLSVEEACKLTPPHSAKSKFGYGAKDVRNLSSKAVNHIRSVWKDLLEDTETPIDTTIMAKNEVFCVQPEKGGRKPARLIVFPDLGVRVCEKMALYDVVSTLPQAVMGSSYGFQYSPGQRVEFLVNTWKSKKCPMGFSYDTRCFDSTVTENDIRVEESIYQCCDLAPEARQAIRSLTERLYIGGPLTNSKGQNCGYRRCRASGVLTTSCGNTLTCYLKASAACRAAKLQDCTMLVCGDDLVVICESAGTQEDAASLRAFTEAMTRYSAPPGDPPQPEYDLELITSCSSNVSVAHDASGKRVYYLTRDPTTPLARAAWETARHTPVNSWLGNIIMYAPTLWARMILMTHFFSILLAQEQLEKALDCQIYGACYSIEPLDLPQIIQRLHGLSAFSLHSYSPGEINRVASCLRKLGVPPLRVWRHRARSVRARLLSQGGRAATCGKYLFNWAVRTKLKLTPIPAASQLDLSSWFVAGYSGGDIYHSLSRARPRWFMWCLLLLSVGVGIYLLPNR

CCN(CC)C1CCN(C(=O)Cn2c(-c3ccco3)c(C3CCCCC3)c3ccc(C(=O)NS(=O)(=O)N(C)C)cc32)CC1
EC50 [1]: 120 nM

CN(C)CC1COc2ccc3nc4n(c3c2C1)CC(CN(C)C)CN4 (centres undefined)
Kd [2]: 720 nM

CC(=O)N[C@@H](C(=O)O)C(=O)N[C@@H](CCC(=O)O)C(=O)N[C@H](C(=O)N[C@@H](CCC(=O)O)C(=O)N[C@@H](CC1CCCCC1)C(=O)N[C@@H](CC(F)F)C(=O)O)C(c1ccccc1)c1ccccc1
Ki [3]: 20 nM

CC1COc2cc3c(-c4ccc[nH]c4=O)c(C(=O)NS(C)(=O)=O)n(Cc4cc(F)ccc4F)c3cc21 (centres undefined)
IC50 [4]: 6 to 15 nM

COc1ccc2c(c1)C=C(c1c(C(=O)C3C4CCCC3COC4)cnn1-c1ccncc1C)Cn1c-2c(C2CCCCC2)c2ccc(C(=O)NS(=O)(=O)C(C)C)cc21 (centres undefined)
EC50 [1]: 4 nM

O=C(NCCCc1ccccc1)c1nc2ccccc2c(=O)n1O
IC50 [2]: 8800 nM

C=C[C@@H]1C[C@]1(NC(=O)[C@@H]1C[C@@H](Oc2ncc(OC)c3ccc(Cl)cc23)CN1C(=O)[C@@H](NC(=O)OC(C)(C)C)C(C)(C)C)C(=O)NS(=O)(=O)C1CC1
EC50 [1]: 1 nM

Cc1ccc(NC(=O)c2c(NO)cc(-c3ccccc3)oc2=O)cc1
EC50 [1]: 180 nM

O=C(N[C@@H](Cc1c[nH]c2ccc(O)cc12)c1cscn1)c1ccc2c(c1)nc(-c1ccco1)n2C1CCCCC1
EC50 [1]: 1700 nM

Cn1c(-c2ccco2)c(C2CCCCC2)c2ccc(C(=O)N[C@@H](Cc3c[nH]c4ccc(O)cc34)c3cscn3)cc21
EC50 [1]: 50 nM

O=C(O)C1C(c2ccccc2)c2ccccc2C(=O)N1O (centres undefined)
IC50 [2]: 15700 nM

C=C[C@H]1C[C@]1(NC(=O)[C@@H]1C[C@@H]2CN1C(=O)[C@H](C(C)(C)C)NC(=O)O[C@@H]1C[C@H]1CCCCCc1c(nc3ccccc3c1OC1CC3CCC(C1)N3C)O2)C(=O)NS(=O)(=O)C1(C)CC1 (some centres undefined)
EC50 [5]: 0.62 nM
EC50 [6]: 0.26 nM

CC(C)(C)OC(=O)N[C@H]1CCCCC/C=C\[C@@H]2C[C@@]2(C(=O)NS(=O)(=O)C2CC2)NC(=O)[C@@H]2C[C@@H](OC(=O)N3Cc4cccc(F)c4C3)CN2C1=O [DANOPREVIR]
EC50 [1]: 17.5 nM
IC50 [7]: 0.2 to 3.5 nM

COc1ccc2c(c1)[C@H]1[C@@H](CCN1CCN(C)C)CCn1c-2c(C2CCCCC2)c2ccc(C(=O)O)cc21
EC50 [1]: 29 nM

CC(C)Cn1cnc2c(N)nc3ccccc3c21 [IMIQUIMOD]
EC50 [1]: 1000 nM

Cc1cc2c(-c3ccc[nH]c3=O)c(C(=O)NS(=O)(=O)C3CC3)n(Cc3cc(F)ccc3F)c2cc1F
IC50 [4]: 8 nM

COc1ccc2c(O[C@@H]3C[C@H]4C(=O)N[C@]5(C(=O)NS(=O)(=O)C6CC6)C[C@H]5/C=C/CCCCN(C)C(=O)[C@@H]4C3)cc(-c3nc(C(C)C)cs3)nc2c1C
IC50 [7]: 3 to 28.2 nM

CC(=O)N[C@@H](C(=O)O)C(=O)N[C@@H](CCC(=O)O)C(=O)N[C@H](C(=O)N[C@H](C(=O)N1C[C@H](OCc2ccccc2)C[C@H]1C(=O)NC1(C(=O)O)CC1)C(C)C)C1CCCCC1
IC50 [3]: 51 nM

Nc1nc(C(F)(F)F)cc2c1[nH]c(=O)n2Cc1ccccc1
EC50 [1]: 102000 nM

C/C(=C/c1cc(-c2ccc(OCc3cc(CN4CCC(O)CC4=O)ccc3-c3ccc(C#N)cc3)cc2)n(C2CCCCC2)n1)C(=O)O (centres undefined)
EC50 [1]: 400 nM

CC(C)C[C@H](NC(=O)[C@H](CC(=O)O)NC(=O)OC(C)C)C(=O)N[C@@H](CC(F)(F)F)C(=O)NCCc1ccc(C(=O)O)cc1Cl
Ki [3]: 600 nM

Cc1c(C(=O)O)sc2c(C3CCCCC3)c(-c3ccccc3)n(CC(=O)N(C)C3CCN(C(C)C)C3)c12 (centres undefined)
EC50 [1]: 130 nM

O=C(O)c1ccc2c(C3CCCCC3)c3n(c2c1)CCN(CCN1CCCCC1)c1ccccc1-3
EC50 [1]: 400 nM

CCN(CC)C1CCN(C(=O)Cn2c(-c3ccccc3)c(C3CCCCC3)c3ccc(C(=O)O)cc32)CC1
EC50 [1]: 800 nM

CN(C)CCCn1c(N)nc2ccc3c(c21)CC(CN(C)C)O3 (centres undefined)
Kd [2]: 1700 nM

CC(=O)N(c1ccc(N2CCOCC2)c(COc2ccc(-c3nc4cc(C(=O)O)ccc4n3C3CCCCC3)c(F)c2)c1)C(C)C
EC50 [1]: 270 nM

N#Cc1c(Cl)cc(Cl)cc1COc1cccc(C(=O)/C=C(\O)C(=O)O)c1
IC50 [2]: 45000 nM

CC[C@@H]1C[C@]1(NC(=O)[C@@H]1C[C@@H]2CN1C(=O)[C@H](C(C)(C)C)NC(=O)OCC(C)(C)CCCCc1cccc3c1CN(C3)C(=O)O2)C(=O)NS(=O)(=O)C1CC1
IC50 [1]: 3 nM

Cc1ccc2c(-c3ccc[nH]c3=O)c(C(=O)NS(=O)(=O)C3CC3)n(Cc3cc(F)ccc3F)c2c1
EC50 [1]: 90 nM
IC50 [4]: 5 nM

CCc1ccc2c(-c3ccc[nH]c3=O)c(C(=O)NS(=O)(=O)C3CC3)n(Cc3cc([N+](=O)[O-])ccc3F)c2c1
EC50 [1]: 1 nM

CC(C)C[C@H](NC[C@H](CC(=O)O)NC(=O)[C@H](CC1CCCCC1)NC(=O)[C@@H]1CCCC[C@H]1C(=O)O)C(N)=O
IC50 [3]: 15000 nM

CCCC[C@H](NC(=O)[C@@H]1[C@@H]2[C@H](CN1C(=O)[C@@H](NC(=O)NC1(CS(=O)(=O)C(C)(C)C)CCCCC1)C(C)(C)C)C2(C)C)C(=O)C(=O)NC1CC1
EC50 [1]: 40 nM
Ki [7]: 6 nM

CC(=O)N[C@@H](C(=O)O)C(=O)N[C@@H](CCC(=O)O)C(=O)N[C@H](C(=O)N[C@H](C(=O)N1C[C@H](OCc2ccccc2)C[C@H]1C(=O)NC(CS)C(=O)O)C(C)C)C1CCCCC1 (some centres undefined)
IC50 [3]: 33 nM

Cn1c(-c2ccc(OCc3cc(N4CCCC4=O)ccc3N3CCOCC3)cc2)c(C2CCCCC2)c2sc(C(=O)O)cc21
EC50 [1]: 52 nM

COC(=O)N[C@H](C(=O)N1CCC[C@H]1c1nc2ccc(-c3ccc(-c4ccc5nc([C@@H]6CCCN6C(=O)[C@@H](NC(=O)OC)C(C)C)[nH]c5c4)cc3)cc2[nH]1)C(C)C
EC50 [1]: 0.83 nM

CN(C)CCCn1c(N)nc2ccccc21
Kd [2]: > 100000 nM

CC(C)N1CC[C@@H](N2CCn3c(c(C4CCCCC4)c4sc(C(=O)O)cc43)-c3ccccc3C2)C1
EC50 [1]: 150 nM

CN(C)CCN1CCn2c(c(C3CCCCC3)c3ccc(C(=O)O)cc32)-c2ccccc2C1
EC50 [1]: 140 nM

C=C[C@@H]1C[C@]1(NC(=O)[C@@H]1C[C@@H]2CN1C(=O)[C@H](C(C)(C)C)NC(=O)O[C@@H]1C[C@H]1CCCCCc1nc3ccc(OC)cc3nc1O2)C(=O)NS(=O)(=O)C1CC1 [GRAZOPREVIR ANHYDROUS]
EC50 [1]: 9.5 nM

CCCCn1cc(/C=C2\Oc3cc(O)cc(O)c3C2=O)c2ccccc21
EC50 [1]: 2200 nM

Nc1cc(Cn2c(C(=O)O)c(-c3ccc[nH]c3=O)c3ccc(Cl)cc32)ccn1
EC50 [1]: 4800 nM
IC50 [4]: 53 nM

O=C(O)c1ccc2c(C3CCCCC3)c3n(c2c1)CCOc1cc(OCc2cc(N4CCCC4=O)ccc2N2CCOCC2)ccc1-3
EC50 [1]: 7.6 nM

COC(=O)N[C@H](C(=O)N1C[C@H](C)C[C@@H]1c1nc2sc(-c3ccc(-c4ccc(-c5c[nH]c([C@@H]6[C@H](C)CCN6C(=O)[C@H](NC(=O)OC)C(C)C)n5)cc4)cc3)cc2[nH]1)C(C)C
EC50 [5]: 0.008 nM
EC50 [8]: 0.017 nM

CN(C)CCN(C)[C@@H]1Cn2c(c(C3CCCCC3)c3ccc(C(=O)O)cc32)-c2ccccc2O1
EC50 [1]: 38 nM

CN(C)C(=O)Cn1c(-c2ccccc2)c(C2CCCCC2)c2sc(C(=O)O)cc21
EC50 [1]: 2900 nM

CS(=O)(=O)Nc1cccc(S(=O)(=O)NC(=O)c2c(-c3ccc[nH]c3=O)c3ccc(Cl)cc3n2Cc2ccnc(N)c2)c1
EC50 [1]: 11 nM
IC50 [4]: 39 nM

COc1ccc2c(O[C@@H]3C[C@H]4C(=O)N[C@]5(C(=O)O)C[C@H]5/C=C\CCCCC[C@H](NC(=O)OC5CCCC5)C(=O)N4C3)cc(-c3csc(NC(C)C)n3)nc2c1
EC50 [1]: 9.5 nM

COc1ccc2c(c1)C=C1Cn3c-2c(C2CCCCC2)c2ccc(cc23)C(=O)NS(=O)(=O)N(C)CCOCCN(C)C1=O [TMC-647055]
EC50 [1]: 82 nM

CCc1nc2c(N)nc3ccccc3c2n1CCCCNS(C)(=O)=O [CPG-52852]
EC50 [1]: 100000 nM

COCCOc1nc(N)c2[nH]c(=O)n(Cc3ccccc3)c2n1
EC50 [1]: 20000 nM

O=C1Cn2c(c(C3CCCCC3)c3ccc(C(=O)O)cc32)-c2ccccc2N1
EC50 [1]: 240 nM

Cn1c(Cc2nc3cc(C(N)=O)ccc3[nH]2)nc2ccc(C(=O)NC(CP(=O)(O)O)C(=O)O)cc21 (centres undefined)
Ki [3]: 1000 nM
Ki [9]: 27 nM

CC(=O)N[C@@H](C(=O)O)C(=O)N[C@@H](CCC(=O)O)C(=O)N[C@H](C(=O)N[C@@H](CCC(=O)O)C(=O)N[C@@H](CC1CCCCC1)C(=O)N[C@@H](CS)C(=O)O)C(c1ccccc1)c1ccccc1
Ki [3]: 40 nM

CCCC1(CC(=O)O)OCCC2c3c(CC)ccc(Cl)c3NC21 (centres undefined)
IC50 [4]: 3000 nM

O=C(N[C@@H](Cc1c[nH]c2ccccc12)C(=O)O)c1ccc2c(c1)nc(-c1ccoc1)n2C1CCCCC1
IC50 [2]: 19 nM

COc1ccc2cc(O[C@@H]3C[C@@H](C(=O)NC4(C(=O)O)CC4)N(C(=O)[C@@H](NC(=O)[C@@H](NC(C)=O)C4CCCCC4)C(C)C)C3)cnc2c1
IC50 [3]: 800 nM

— ChEMBL document CHEMBL4602603, “A review on HCV inhibitors: Significance of non-structural polyproteins” (Eur J Med Chem, 2019)
